Measured values from article PMC8949366, “Synthesis of Marine Cyclopeptide Galaxamide Analogues as Potential Anticancer Agents” (Marine Drugs, 2022).
Converted amounts (≈) assume the structure as drawn. Square brackets hold non-standard residues; d marks the D form. Peptide text beside a SMILES is read from it. NMeL = CN[C@@H](CC(C)C)C(=O)O

Legend:
[1] = test system: GRC-1; parameters: method as in PMID 18816120; conditions: cited from earlier work
[2] = test system: MCF-7 cells; test: Annexin V-FITC/PI double staining apoptosis, flow cytometry; format: cell-based, human; conditions: 0, 2.5, 5, 10 µg/mL, 72 h
Method: The Annexin V-FITC/PI double staining method was used to analyze the changes in the apoptosis of MCF-7 cells after 72 h of galaxamide, Z-3, and Z-6 exposure. […] At low concentrations, the effects of all the tested compounds were not obvious. When the concentration reached 10 μg/mL, the apoptotic effects of galaxamide, Z-3, and Z-6 on MCF-7 cells were more obvious in the late apoptotic state.
(§1) The concentration of 1 × 10^4 cells per well of MCF-7 cells were seeded in 96-well plates. The cell cultures were added to the compounds with a concentration of 0, 2.5, 5, and 10 µg/mL, and incubated for 72 h. After that, 5 µL of Annexin V-fluorescein isothiocyanate (FITC) and 5 µL of PI were added for dual staining of the cells for analysis by FACS flow cytometry. Cell cycles and apoptotic cells were determined by counting the FITC-positive and PI-negative fractions.
The apoptotic cells were quantified according to the instructions provided in an Annexin V-FITC (Sigma-Aldrich, St. Louis, MO, USA) cell apoptosis assay kit. Briefly, about 1.5 × 10^5 cells were plated in 96-well plates and treated with galaxamide and its representative analogues (0, 2.5, 5, and 10 µg/mL) for 48 h. The cells were then resuspended in a […] binding buffer. Afterward, […] of annexin V-fluorescein isothiocyanate (FITC) was added, followed by incubation in darkness at room temperature for 10 min. The cells were again resuspended in […] binding buffer and stained with […] PI. The prepared cells were then analyzed using a flow cytometry (Coulter Epics Elite, Miami, FL, USA). The cells in the FITC-positive and PI-negative fractions were regarded as apoptotic cells.

[3] = test system: HepG2; parameters: method as in PMID 18816120; conditions: cited from earlier work
[4] = test system: MCF-7 cells; test: Hoechst 33,342 staining of nuclear morphology; format: cell-based, human; conditions: 72 h
Method: The morphological alteration of MCF-7 cells was analyzed by the method of Hoechst 33,342 staining (Figure 5). […] The pyknotic nuclei increased with the increasing concentration of these compounds.
[…] After that, the cell culture was washed with 1 mL of PBS and then added with 3 mL of 4% paraformaldehyde solution for 15 min. Then, 1 mL of the prepared Hoechst 33,342 staining solution was added. The resulting mixture was incubated at room temperature for 15 min in the dark.

[5] = test system: MD-MBA-231; format: cell-based, human; conditions: 72 h
Method: (§2) Cell culture: MCF-7/MD-MAB-231 (human breast cancer cell line ATCC HTB-22/HTB-26), Hep G2 (human liver cancer cell line ATCC HB-8065), Hela (human cervical carcinoma cell line ATCC CCL-2), A459 (human lung cancer cell line ATCC CCL-185), and HUVEC (primary umbilical vein endothelial cell line ATCC PCS-100-010) were obtained from the Jinan Department of Pathology, University School of Medicine (Jinan University, Guangzhou, China). The cells were cultured in a Modified Eagle’s Medium (DMEM) including 10% fetal bovine serum, 1% penicillin-streptomycin, and antifungal agent, and cultured under standard conditions (5% CO2 atmosphere and temperature at 37 °C). The MTT method was used to evaluate the cytotoxicities of galaxamide and its analogues on the five cancerous cells. In this experiment, the number of regulated cells was 2 × 10^3 cells/well. Then, the cells, as well as galaxamide and its analogues of different concentrations (0, 2.5, 5, and 10 μg/mL), were seeded on a 96-well cell culture plate and cultured in a 37 °C, 5% CO2 incubator for 72 h. After that, 20 µL/well of MTT solution (5 mg/mL phosphate-buffered saline) was added and incubated for 5 h. The medium was discarded and replaced with 100 µL/well of DMSO to dissolve the formazan salt. The color intensity of the cell culture at 570 nm was measured using a microplate spectrophotometer (SpectroAma™ 250, Winooski, VT, USA).

[6] = test system: MCF-7; format: cell-based, human; conditions: 72 h
Method: as §2

[7] = test system: Hela; format: cell-based, human; conditions: 72 h
Method: as §2

[8] = test system: A549; format: cell-based, human; conditions: 72 h
Method: as §2

[9] = test system: HUVEC; format: cell-based, human; conditions: 72 h
Method: as §2

[10] = test system: HepG2; format: cell-based, human; conditions: 72 h
Method: as §2

[11] = test system: MCF-7 cells; test: Cell cycle distribution by propidium iodide staining / flow cytometry; format: cell-based, human; conditions: 0, 2.5, 5, 10 µg/mL, 72 h
Method: Therefore, propidium iodide (PI) staining method was used to further investigate the changes in the cell cycle distribution of MCF-7. In particular, MCF-7 cells were exposed to galaxamide, Z-3, and Z-6 with concentrations of 0, 2.5, 5, and 10 µg/mL for 72 h. Generally, the main effects of galaxamide, Z-3, and Z-6 on MCF-7 cells were in the G0/G1 phase. There was no obvious sub diploid peak in flow cytometry.
as §1

IC50 MD-MBA-231 [5]: 8.73 ± 0.29 µg/mL (≈ 14.7 µM)
IC50 MCF-7 [6]: 11.33 ± 2.95 µg/mL (≈ 19.1 µM)
IC50 Hela [7]: 8.53 ± 0.73 µg/mL (≈ 14.4 µM)
IC50 A549 [8]: 6.99 ± 0.63 µg/mL (≈ 11.8 µM)
IC50 HepG2 [10]: 5.20 ± 0.52 µg/mL (≈ 8.76 µM)
SMILES: CC(C)C[C@@H]1NC(=O)[C@H](CC(C)C)N(C)C(=O)[C@H](CC(C)C)NC(=O)[C@H](CC(C)C)N(C)C(=O)[C@H](CC(C)C)NC1=O [galaxamide] (cyclo(LL[NMeL]L[NMeL]))
Antitumor activity against GRC-1 (in words) [1]: significant antitumor activities
Apoptosis of MCF-7 cells (in words) [2]: apoptosis rate of MCF-7 increased with the increasing of the concentration
Antitumor activity against HepG2 (in words) [3]: significant antitumor activities
Nuclear morphology of MCF-7 cells (in words) [4]: the morphology of the nuclei was significantly changed
IC50 HUVEC [9]: >40 µg/mL
Effect on cell cycle of MCF-7 (in words) [11]: mainly blocked the growth of cells in the G0/G1 phase
